Legend:
ryegrass, Ital. = test: Test D preemergence; type: in vivo, Lolium multiflorum; settings: for Plant response rating: Ryegrass, Ital.: scale 0 to 100
Source text: (§1) Seeds of plant species selected from bluegrass (annual bluegrass, Poa annua), blackgrass (Alopecurus myosuroides), canarygrass (Phalaris minor), chickweed (common chickweed, Stellaria media), galium (catchweed bedstraw, Galium aparine), bromegrass, down (downy bromegrass, Bromus tectorum), Russian thistle (Salsola kali), field poppy (Papaver rhoeas), field violet (Viola arvensis), foxtail, green (green foxtail, Setaria viridis), deadnettle (henbit deadnettle, Lamium amplexicaule), ryegrass, Ital. (Italian ryegrass, Lolium multiflorum), kochia (Kochia scoparia), lambsquarters (Chenopodium album), oilseed rape (Brassica napus), pigweed (Amaranthus retroflexus), chamomile (scentless chamomile, Matricaria inodora), speedwell (bird's-eye speedwell, Veronica persica), barley, spring (spring barley, Hordeum vulgare), wheat, spring (spring wheat, Triticum aestivum), buckwheat, wild (wild buckwheat, Polygonum convolvulus), wild mustard (Sinapis arvensis), oat, wild (wild oat, Avena fatua), radish, wild (wild radish, Raphanus raphanistrum), […]), barley, winter (winter barley, Hordeum vulgare), and wheat, winter (winter wheat, Triticum aestivum) were planted into a silt loam soil and treated preemergence with test chemicals formulated in a non-phytotoxic solvent mixture which included a surfactant. At the same time, these species were planted in pots containing Sunshine Redi-Earth® planting medium comprising spaghnum peat moss, vermiculite, starter nutrients and dolomitic limestone and treated with postemergence applications of the test chemicals formulated in the same manner. Plants ranged in height from 2 to 18 cm (1- to 4-leaf stage). Treated plants and controls were maintained in a controlled growth environment for 14 to 21 d after which time all species were compared to controls and visually evaluated. […] A dash (-) response means no test result.

oat, wild = test: Test D postemergence; type: in vivo, Avena fatua; settings: scale 0 to 100
Source text: as §1

bromegrass, down = test: Test D postemergence; type: in vivo, Bromus tectorum; settings: scale 0 to 100
Source text: as §1

speedwell = test: Test D preemergence; type: in vivo, Veronica persica; settings: for Plant response rating: Speedwell: scale 0 to 100
Source text: as §1

radish, wild = test: Test D postemergence; type: in vivo, Raphanus raphanistrum; settings: scale 0 to 100
Source text: as §1

lambsquarters = test: Test C preemergence; type: in vivo, Chenopodium album; settings: for Plant response rating (scale of 0 to 100 where 0 is no effect and 100 is complete control): Lambsquarters, preemergence; for Lambsquarters plant response rating (0 to 100): Preemergence, visual rating after 13 to 15 d
Source text: (§2) Seeds of plant species selected from blackgrass (Alopecurus myosuroides), ryegrass, Italian (Italian ryegrass, Lolium multiflorum), wheat (winter wheat, Triticum aestivum), galium (catchweed bedstraw, Galium aparine), corn (Zea mays), crabgrass, large (large crabgrass, Digitaria sanguinalis), foxtail, giant, (giant foxtail, Setaria faberii), johnsongrass (Sorghum halepense), lambsquarters (Chenopodium album), morningglory (Ipomoea coccinea), nutsedge, yellow (yellow nutsedge, Cyperus esculentus), pigweed (Amaranthus retroflexus), ragweed (common ragweed, Ambrosia elatior), soybean (Glycine max), barnyardgrass (Echinochloa crus-galli), oilseed rape (Brassica napus), waterhemp (common waterhemp, Amaranthus rudis), and velvetleaf (Abutilon theophrasti) were planted into a blend of loam soil and sand and treated preemergence with test chemicals formulated in a non-phytotoxic solvent mixture which included a surfactant. At the same time, plants selected from these crop and weed species and also chickweed (common chickweed, Stellaria media), oat, wild (wild oat, Avena fatua), and kochia (Kochia scoparia), were planted in pots containing Sunshine Redi-Earth® planting medium comprising spaghnum peat moss, vermiculite, starter nutrients and dolomitic limestone and treated with postemergence applications of test chemicals formulated in the same manner. Plants ranged in height from 2 to 18 cm (1- to 4-leaf stage) for postemergence treatments. […] A dash (-) response means no test result.

blackgrass [1] = test: Test D postemergence; type: in vivo, Alopecurus myosuroides; settings: scale 0 to 100
Source text: as §1

windgrass = test: Test D preemergence; type: in vivo, Apera spica-venti; settings: for Plant response rating: Windgrass: scale 0 to 100
Source text: as §1

field poppy = test: Test D preemergence; type: in vivo, Papaver rhoeas; settings: for Plant response rating: Field Poppy: scale 0 to 100
Source text: as §1

field violet = test: Test D preemergence; type: in vivo, Viola arvensis; settings: for Plant response rating: Field Violet: scale 0 to 100
Source text: as §1

blackgrass [2] = test: Test C preemergence; type: in vivo, Alopecurus myosuroides; settings: for Plant response rating (scale of 0 to 100 where 0 is no effect and 100 is complete control): Blackgrass, preemergence; for Blackgrass plant response rating (0 to 100): Preemergence, visual rating after 13 to 15 d
Source text: as §2

ryegrass, Italian = test: Test A postemergence; type: in vivo, Lolium multiflorum; settings: 0 to 100 scale (0 no effect, 100 complete control), approx. 10 d
In short: (§3)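 Ratings reflect visual injury after ~10 d in greenhouse, 0 = no effect, 100 = complete control. Postemergence treatment was applied to one- to two-leaf seedlings; preemergence treatment was a directed soil spray at planting.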

Russian thistle = test: Test D postemergence; type: in vivo, Salsola kali; settings: scale 0 to 100
Source text: as §1

blackgrass [3] = test: Test A postemergence; type: in vivo, Alopecurus myosuroides; settings: 0 to 100 scale (0 no effect, 100 complete control), approx. 10 d
In short: as §3

[4] = 16 g ai/ha, 0 is no effect, 100 is complete control

Row | SMILES | Plant response rating: Ryegrass, Ital. (ryegrass, Ital.; 62 g ai/ha) | Plant response rating: Ryegrass, Ital. (ryegrass, Ital.; 125 g ai/ha) | Plant response rating: Oat, Wild (oat, wild; 31 g ai/ha) | Plant response rating: Oat, Wild (oat, wild; 62 g ai/ha) | Plant response rating: Oat, Wild (oat, wild; 125 g ai/ha) | Plant response rating: Bromegrass, Down (bromegrass, down; 31 g ai/ha) | Plant response rating: Bromegrass, Down (bromegrass, down; 62 g ai/ha) | Plant response rating: Bromegrass, Down (bromegrass, down; 125 g ai/ha) | Plant response rating: Speedwell (speedwell; 62 g ai/ha) | Plant response rating: Speedwell (speedwell; 125 g ai/ha) | Plant response rating: Radish, Wild (radish, wild; 31 g ai/ha) | Plant response rating: Radish, Wild (radish, wild; 62 g ai/ha) | Plant response rating: Radish, Wild (radish, wild; 125 g ai/ha) | Plant response rating: Blackgrass (blackgrass [1]; 31 g ai/ha) | Plant response rating: Blackgrass (blackgrass [1]; 62 g ai/ha) | Plant response rating: Blackgrass (blackgrass [1]; 125 g ai/ha) | Plant response rating: Windgrass (windgrass; 62 g ai/ha) | Plant response rating: Windgrass (windgrass; 125 g ai/ha) | Plant response rating: Field Poppy (field poppy; 62 g ai/ha) | Plant response rating: Field Poppy (field poppy; 125 g ai/ha) | other results
1 | CCc1nc(-c2ccc(C(F)(F)F)cc2)nn1Cc1ccnc(C(F)(F)F)c1 [Compound 1, 4-[[5-ethyl-3-[4-(trifluoromethyl)phenyl]-1H-1,2,4-triazol-1-yl]methyl]-2-(trifluoromethyl)pyridine] | 25 | 30 | 25 | 30 | 35 | 15 | 20 | 25 | 100 | 100 | 75 | 100 | 95 | 10 | 20 | 30 | 100 | 100 | 100 | 100 | Plant response rating: Ryegrass, Ital. (ryegrass, Ital.; 250 g ai/ha): 35; Plant response rating: Oat, Wild (oat, wild; 250 g ai/ha): 45; Plant response rating: Bromegrass, Down (bromegrass, down; 250 g ai/ha): 35; Plant response rating: Speedwell (speedwell; 250 g ai/ha): 100; Plant response rating: Radish, Wild (radish, wild; 250 g ai/ha): 95; Plant response rating (scale of 0 to 100 where 0 is no effect and 100 is complete control) (lambsquarters; 125 g ai/ha): 98; Plant response rating (scale of 0 to 100 where 0 is no effect and 100 is complete control) (lambsquarters; 250 g ai/ha): 98; Lambsquarters plant response rating (0 to 100) (lambsquarters; 31 g ai/ha): 90; Lambsquarters plant response rating (0 to 100) (lambsquarters; 62 g ai/ha): 98; Plant response rating: Blackgrass (blackgrass [1]; 250 g ai/ha): 45; Plant response rating: Windgrass (windgrass; 250 g ai/ha): 100; Plant response rating: Field Poppy (field poppy; 250 g ai/ha): 100; Plant response rating: Field Violet (field violet; 62 g ai/ha): 95; Plant response rating: Field Violet (field violet; 125 g ai/ha): 100; Plant response rating: Field Violet (field violet; 250 g ai/ha): 100; Plant response rating (scale of 0 to 100 where 0 is no effect and 100 is complete control) (blackgrass [2]; 125 g ai/ha): 80; Plant response rating (scale of 0 to 100 where 0 is no effect and 100 is complete control) (blackgrass [2]; 250 g ai/ha): 85; Blackgrass plant response rating (0 to 100) (blackgrass [2]; 31 g ai/ha): 5; Blackgrass plant response rating (0 to 100) (blackgrass [2]; 62 g ai/ha): 75
2 | COc1nc(-c2ccc(Cl)cc2)nn1Cc1ccnc(C(F)(F)F)c1 [Compound 28] | 25 | 55 | 40 | 45 | 50 | 20 | 25 | 35 | 100 | 100 | 95 | 95 | 100 | 35 | 55 | 60 | 50 | 80 | 100 | 100 | Plant response rating, Ryegrass, Italian (ryegrass, Italian; 125 g ai/ha): 20; Plant response rating, Ryegrass, Italian (ryegrass, Italian; 500 g ai/ha): 50; Plant response rating (0 to 100), Ryegrass, Ital. (ryegrass, Ital.; [4]): 25; Plant response rating: Russian Thistle (Russian thistle; 16 g ai/ha): 70; Plant response rating: Russian Thistle (Russian thistle; 31 g ai/ha): 75; Plant response rating: Russian Thistle (Russian thistle; 62 g ai/ha): 85; Plant response rating: Russian Thistle (Russian thistle; 125 g ai/ha): 85; Plant response rating: Oat, Wild (oat, wild; 16 g ai/ha): 30; Plant response rating: Bromegrass, Down (bromegrass, down; 16 g ai/ha): 20; Plant response rating (0 to 100), Speedwell (speedwell; [4]): 75; Plant response rating: Radish, Wild (radish, wild; 16 g ai/ha): 85; Plant response rating: Blackgrass (blackgrass [1]; 16 g ai/ha): 25; Plant response rating (0 to 100), Windgrass (windgrass; [4]): 25; Plant response rating (0 to 100), Field Poppy (field poppy; [4]): 70; Plant response rating, Blackgrass (blackgrass [3]; 125 g ai/ha): 10; Plant response rating, Blackgrass (blackgrass [3]; 500 g ai/ha): 40; Plant response rating (0 to 100), Field Violet (field violet; [4]): 65; Plant response rating: Field Violet (field violet; 62 g ai/ha): 95; Plant response rating: Field Violet (field violet; 125 g ai/ha): 100
3 | CCOc1nc(-c2ccc(F)cc2)nn1Cc1ccnc(C(F)(F)F)c1 [Compound 8, 4-[[5-ethoxy-3-(4-fluorophenyl)-1H-1,2,4-triazol-1-yl]methyl]-2-(trifluoromethyl)pyridine] | 40 | 95 | 35 | 45 | 45 | 35 | 45 | 55 | 100 | 100 | 80 | 100 | 100 | 50 | 50 | 75 | 90 | 100 | 100 | 100 | Plant response rating: Ryegrass, Ital. (ryegrass, Ital.; 250 g ai/ha): 100; Plant response rating: Oat, Wild (oat, wild; 250 g ai/ha): 55; Plant response rating: Bromegrass, Down (bromegrass, down; 250 g ai/ha): 60; Plant response rating: Speedwell (speedwell; 250 g ai/ha): 100; Plant response rating: Radish, Wild (radish, wild; 250 g ai/ha): 100; Plant response rating (scale of 0 to 100 where 0 is no effect and 100 is complete control) (lambsquarters; 125 g ai/ha): 100; Plant response rating (scale of 0 to 100 where 0 is no effect and 100 is complete control) (lambsquarters; 250 g ai/ha): 100; Lambsquarters plant response rating (0 to 100) (lambsquarters; 31 g ai/ha): 95; Lambsquarters plant response rating (0 to 100) (lambsquarters; 62 g ai/ha): 98; Plant response rating: Blackgrass (blackgrass [1]; 250 g ai/ha): 70; Plant response rating: Windgrass (windgrass; 250 g ai/ha): 100; Plant response rating: Field Poppy (field poppy; 250 g ai/ha): 100; Plant response rating: Field Violet (field violet; 62 g ai/ha): 100; Plant response rating: Field Violet (field violet; 125 g ai/ha): 100; Plant response rating: Field Violet (field violet; 250 g ai/ha): 100; Plant response rating (scale of 0 to 100 where 0 is no effect and 100 is complete control) (blackgrass [2]; 125 g ai/ha): 90; Plant response rating (scale of 0 to 100 where 0 is no effect and 100 is complete control) (blackgrass [2]; 250 g ai/ha): 90; Blackgrass plant response rating (0 to 100) (blackgrass [2]; 31 g ai/ha): 90; Blackgrass plant response rating (0 to 100) (blackgrass [2]; 62 g ai/ha): 90

From patent US10681909B2, “Herbicidal triazoles” (FMC Corporation, priority 2014, dated 2020)
